Consider 30 compounds from patent US9394311B2, “Triazolo compounds as PDE10 inhibitors” (Hoffmann-La Roche Inc., priority 2012, dated 2016).

In the assay the target is human PDE10A (Homo sapiens (Human), UniProt Q9Y233). The assay is described as follows: human PDE10A full length Scintillation Proximity Assay (SPA). Format: biochemical. The settings on record: PDE10A full length enzyme, 50 nM cGMP / [3H]-cGMP substrate, 20 minutes at room temperature. The method, then: The following test was carried out in order to determine the activity of the compounds of the present invention. PDE10 activity of the compounds of the present invention was determined using a Scintillation Proximity Assay (SPA)-based method similar to the one previously described (Fawcett, L. et al., Proc Natl Acad Sci USA (2000) 97(7):3702-3707).
Sequence of human PDE10A (Q9Y233 other isoform, or with tags, fused parts or gaps): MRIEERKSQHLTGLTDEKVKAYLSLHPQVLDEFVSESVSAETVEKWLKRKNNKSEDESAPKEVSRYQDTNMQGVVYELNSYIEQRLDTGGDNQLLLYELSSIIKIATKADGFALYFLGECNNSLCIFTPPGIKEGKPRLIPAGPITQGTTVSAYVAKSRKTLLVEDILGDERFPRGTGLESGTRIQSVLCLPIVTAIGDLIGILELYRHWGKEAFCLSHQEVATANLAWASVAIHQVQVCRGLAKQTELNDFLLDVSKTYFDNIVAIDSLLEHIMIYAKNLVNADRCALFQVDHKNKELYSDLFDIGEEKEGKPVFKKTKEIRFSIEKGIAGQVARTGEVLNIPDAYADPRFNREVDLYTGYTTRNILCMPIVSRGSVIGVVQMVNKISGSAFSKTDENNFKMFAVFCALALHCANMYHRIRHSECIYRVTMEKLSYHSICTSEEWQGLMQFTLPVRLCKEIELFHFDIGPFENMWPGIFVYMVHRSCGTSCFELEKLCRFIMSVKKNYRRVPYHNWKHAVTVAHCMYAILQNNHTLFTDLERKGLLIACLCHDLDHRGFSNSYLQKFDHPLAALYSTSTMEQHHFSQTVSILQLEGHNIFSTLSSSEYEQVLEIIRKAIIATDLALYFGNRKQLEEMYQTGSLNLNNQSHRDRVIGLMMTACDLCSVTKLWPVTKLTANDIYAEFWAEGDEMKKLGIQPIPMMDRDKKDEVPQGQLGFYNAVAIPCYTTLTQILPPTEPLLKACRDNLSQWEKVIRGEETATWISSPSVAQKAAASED
The human PDE10A full length assay was performed in 96-well micro titer plates. The reaction mixture of 50 μl contained 20 mM HEPES pH=7.5/10 mM MgCl2/0.05 mg/ml BSA (Sigma cat. # A-7906), 50 nM cGMP (Sigma, cat. # G6129) and 50 nM [3H]-cGMP (GE Healthcare, cat. # TRK392 S.A. 13.2 Ci/mmol), 3.75 ng/well PDE10A enzyme (Enzo Life Science, Lausen, Switzerland cat # SE-534) with or without a specific test compound. A range of concentrations of the potential inhibitor was used to generate data for calculating the concentration of inhibitor resulting in 50% of the effect (e.g. IC50, the concentration of the competitor inhibiting PDE10A activity by 50%). Non-specific activity was tested without the enzyme. The reaction was initiated by the addition of the substrate solution (cGMP and [3H]-cGMP) and allowed to progress for 20 minutes at room temperature. The reaction was terminated by adding 25 μl of YSi-SPA scintillation beads (GE Healthcare, cat. # RPNQ0150) in 18 mM zinc sulphate solution (stop reagent). After 1 h under shaking, the plate was centrifuged one minute at 170 g to allow beads to settle. Afterwards, radioactive counts were measured on a Perkin Elmer Top-Count Scintillation plate reader.
With `Cc1cc(Cl)c(C)n2nc(/C=C/c3nc(N4CCCC4)n(C)n3)nc12` [Example 35, 6-Chloro-5,8-dimethyl-2-(2-(1-methyl-5-(pyrrolidin-1-yl)-1H-1,2,4-triazol-3-yl)vinyl)-[1,2,4]triazolo[1,5-a]pyridine], the IC50 came out at 0.15 nM. That is a sub-nanomolar value.

As for `Cc1c(Cl)ccc2nc(CCc3nc(N4CCCC4)nn3C)nn12` [Example 27, 6-Chloro-5-methyl-2-(2-(1-methyl-3-(pyrrolidin-1-yl)-1H-1,2,4-triazol-5-yl)ethyl)-[1,2,4]triazolo[1,5-a]pyridine], it took 0.98 nM to reach half-maximal inhibition (IC50).

With `Cc1cc(C)n2nc(CCc3nc(N4CCCC4)nn3C)nc2n1` [Example 24, 5,7-dimethyl-2-(2-(1-methyl-3-(pyrrolidin-1-yl)-1H-1,2,4-triazol-5-yl)ethyl)-[1,2,4]triazolo[1,5-a]pyrimidine], half-maximal inhibition (IC50) required 23.6 nM. The result for `COc1ccc(Cn2nc(C#Cc3nc4cc(Cl)ccn4n3)nc2N2CCCC2)cc1` [Example 19, 7-Chloro-2-[1-(4-methoxy-benzyl)-5-pyrrolidin-1-yl-1H-[1,2,4]triazol-3-ylethynyl]-[1,2,4]triazolo[1,5-a]pyridine] reads 477 nM; that for `Cc1cc(Cl)c(C)n2nc([C@H]3C[C@@H]3c3nc(N4CCCC4)nn3C)nc12` [Example 46, 6-Chloro-5,8-dimethyl-2-[(1S,2S)-2-(2-methyl-5-pyrrolidin-1-yl-2H-[1,2,4]triazol-3-yl)-cyclopropyl]-[1,2,4]triazolo[1,5-a]pyridine], 4.98 nM. The value for `Cc1c(Cl)cc(C(F)(F)F)c2nc(CCc3nc(N4CCCC4)n[nH]3)nn12` [Example 128, 6-Chloro-5-methyl-2-(2-(3-(pyrrolidin-1-yl)-1H-1,2,4-triazol-5-yl)ethyl)-8-(trifluoromethyl)-[1,2,4]triazolo[1,5-a]pyridine] was 0.72 nM; that for `Cn1nc(N2CCCC2)nc1CCc1nc2ccc(C#N)cn2n1` [Example 53, 2-(2-(1-Methyl-3-(pyrrolidin-1-yl)-1H-1,2,4-triazol-5-yl)ethyl)-[1,2,4]triazolo[1,5-a]pyridine-6-carbonitrile] was 381 nM; that for `Cc1ncc(C)n2nc(CC(C)c3nc(N4CCCC4)nn3C)nc12` (single isomer, unassigned; (-)) [Example 126, (−)-5,8-Dimethyl-2-(2-(1-methyl-3-(pyrrolidin-1-yl)-1H-1,2,4-triazol-5-yl)propyl)-[1,2,4]triazolo[1,5-a]pyrazine] was 321 nM. The value for `Cc1c(Cl)cc(C(F)(F)F)c2nc(CCc3nc(N4CCC(F)(F)C4)nn3C)nn12` [Example 88, 6-Chloro-2-{2-[5-(3,3-difluoro-pyrrolidin-1-yl)-2-methyl-2H-[1,2,4]triazol-3-yl]-ethyl}-5-methyl-8-trifluoromethyl-[1,2,4]triazolo[1,5-c]pyridine] was 9.78 nM; that for `Cc1ncc(C)n2nc(CCc3nc(N4CCCC4)nn3CC3CC3)nc12` [Example 117a, 2-[2-(2-Cyclopropylmethyl-5-pyrrolidin-1-yl-2H-[1,2,4]triazol-3-yl)-ethyl]-5,8-dimethyl-[1,2,4]triazolo[1,5-a]pyrazine] was 1.32 nM; that for `Cc1ncc(C)n2nc(CCc3nc(N4CCC(O)C4)nn3C)nc12` (stereo not drawn) [Example 104, 1-{5-[2-(5,8-Dimethyl-[1,2,4]triazolo[1,5-a]pyrazin-2-yl)-ethyl]-1-methyl-1H-[1,2,4]triazol-3-yl}-pyrrolidin-3-ol] was 131 nM. `Cc1nc2ccccc2nc1/C=C/c1nc(N2CCCC2)nn1C` [Example 15, 2-Methyl-3-[2-(2-methyl-5-pyrrolidin-1-yl-2H-[1,2,4]triazol-3-yl)-vinyl]-quinoxaline] came in with an IC50 of 105 nM. The result for `Cc1ncc(C)n2nc(CCc3nc(N4CCCC4)nn3CC(F)(F)F)nc12` [Example 7, 5,8-Dimethyl-2-{2-[5-pyrrolidin-1-yl-2-(2,2,2-trifluoro-ethyl)-2H-[1,2,4]triazol-3-yl]-ethyl}-[1,2,4]triazolo[1,5-a]pyrazine] reads 17 nM. The value for `Cc1nc(C)n2nc(CCc3nc(N4CCCC4)nn3C)nc2c1C` [Example 42, 5,7,8-Trimethyl-2-(2-(1-methyl-3-(pyrrolidin-1-yl)-1H-1,2,4-triazol-5-yl)ethyl)-[1,2,4]triazolo[1,5-c]pyrimidine] was 13.6 nM; that for `Cc1nc(C)n2nc(CCc3nc(N4CCCC4)nn3C)nc2c1Cl` [Example 44, 8-Chloro-5,7-dimethyl-2-(2-(1-methyl-3-(pyrrolidin-1-yl)-1H-1,2,4-triazol-5-yl)ethyl)-[1,2,4]triazolo[1,5-c]pyrimidine] was 9.41 nM; that for `CCn1nc(N2CCCC2)nc1CCc1nc2ccccc2nc1C` [Example 33, 2-[2-(2-Ethyl-5-pyrrolidin-1-yl-2H-[1,2,4]triazol-3-yl)-ethyl]-3-methyl-quinoxaline] was 55 nM. The value for `CCn1nc(N2CCCC2)nc1/C=C/c1nc2c(C)ncc(C)n2n1` [Example 1, 2-[2-(2-Ethyl-5-pyrrolidin-1-yl-2H-[1,2,4]triazol-3-yl)-vinyl]-5,8-dimethyl-[1,2,4]triazolo[1,5-a]pyrazine] was 11.9 nM. `Cc1c(Cl)cc(OCC(F)(F)F)c2nc(CCc3nc(N4CCCC4)nn3C)nn12` [Example 98, 6-Chloro-5-methyl-2-[2-(2-methyl-5-pyrrolidin-1-yl-2H-[1,2,4]triazol-3-yl)-ethyl]-8-(2,2,2-trifluoro-ethoxy)-[1,2,4]triazolo[1,5-c]pyridine] yielded an IC50 of 0.51 nM. Compared with the last compound, the IC50 is about 23-fold lower. The result for `Cc1c(C#N)cc(C(F)(F)F)c2nc(CCc3nc(N4CCCC4)nn3C)nn12` [Example 83, 5-Methyl-2-(2-(1-methyl-3-(pyrrolidin-1-yl)-1H-1,2,4-triazol-5-yl)ethyl)-8-(trifluoromethyl)-[1,2,4]triazolo[1,5-a]pyridine-6-carbonitrile] reads 6.84 nM; that for `CCN(C)c1nc(CCc2nc3c(C)ncc(C)n3n2)n(C)n1` [Example 23, {5-[2-(5,8-Dimethyl-[1,2,4]triazolo[1,5-a]pyrazin-2-yl)-ethyl]-1-methyl-1H-[1,2,4]triazol-3-yl}-ethyl-methyl-amine], 103 nM. The value for `Cc1c(C#N)cc(C#N)c2nc(CCc3nc(N4CCCC4)nn3C)nn12` [Example 78, 5-Methyl-2-[2-(2-methyl-5-pyrrolidin-1-yl-2H-[1,2,4]triazol-3-yl)-ethyl]-[1,2,4]triazolo[1,5-c]pyridine-6,8-dicarbonitrile] was 30.6 nM; that for `Cc1ncc(C)n2nc(/C=C/c3nc(N(C)CC4CC4)nn3C)nc12` [Example 97, Cyclopropylmethyl-{5-[(E)-2-(5,8-dimethyl-[1,2,4]triazolo[1,5-a]pyrazin-2-yl)-vinyl]-1-methyl-1H-[1,2,4]triazol-3-yl}-methyl-amine] was 79.3 nM.

For the compound `Cc1ncc(C)n2nc(CCc3nc(N4CCCC4)nn3C)nc12` [Example 14, 5,8-Dimethyl-2-[2-(2-methyl-5-pyrrolidin-1-yl-2H-[1,2,4]triazol-3-yl)-ethyl]-[1,2,4]triazolo[1,5-a]pyrazine], 5.76 nM corresponded to half-maximal inhibition (IC50). Compared with the last compound, the IC50 is about 14-fold lower. With `Cc1ccc(C)n2nc(CCc3nc(N4CCCC4)nn3C)nc12` [Example 37, 5,8-Dimethyl-2-(2-(1-methyl-3-(pyrrolidin-1-yl)-1H-1,2,4-triazol-5-yl)ethyl)-[1,2,4]triazolo[1,5-a]pyridine], the IC50 came to 4.21 nM. The IC50 values of the last two compounds are within 1.5-fold of each other. The value for `Cc1cnc(C)n2nc(CCc3nc(N4CCCC4)nn3C)nc12` [Example 58, 5,8-Dimethyl-2-[2-(2-methyl-5-pyrrolidin-1-yl-2H-[1,2,4]triazol-3-yl)-ethyl]-[1,2,4]triazolo[1,5-c]pyrimidine] was 8.21 nM. The result for `Cc1ncc(C)n2nc(/C=C/c3nc(N4CCCCCC4)nn3C)nc12` [Example 102, 2-[(E)-2-(5-Azepan-1-yl-2-methyl-2H-[1,2,4]triazol-3-yl)-vinyl]-5,8-dimethyl-[1,2,4]triazolo[1,5-a]pyrazine] reads 179 nM; that for `Cc1c(Br)cc(C(F)(F)F)c2nc(CCc3nc(N4CCCC4)nn3C)nn12` [Example 82, 6-Bromo-5-methyl-2-[2-(2-methyl-5-pyrrolidin-1-yl-2H-[1,2,4]triazol-3-yl)-ethyl]-8-trifluoromethyl-[1,2,4]triazolo[1,5-c]pyridine], 0.48 nM. The result for `Cc1c(Cl)cc(O)c2nc(CCc3nc(N4CCCC4)nn3C)nn12` [Example 85, 6-Chloro-5-methyl-2-(2-(1-methyl-3-(pyrrolidin-1-yl)-1H-1,2,4-triazol-5-yl)ethyl)-[1,2,4]triazolo[1,5-a]pyridin-8-ol] reads 4.22 nM; that for `CCn1nc(C#Cc2nc3c(C)ncc(C)n3n2)nc1N1CCCC1` [Example 47, 2-((1-Ethyl-5-(pyrrolidin-1-yl)-1H-1,2,4-triazol-3-yl)ethynyl)-5,8-dimethyl-[1,2,4]triazolo[1,5-a]pyrazine], 4.48 nM. In turn, `Cc1c(Cl)cc(C(F)(F)F)c2nc(C#Cc3nc(N4CCCC4)nn3C)nn12` [Example 91, 6-Chloro-5-methyl-2-(2-methyl-5-pyrrolidin-1-yl-2H-[1,2,4]triazol-3-ylethynyl)-8-trifluoromethyl-[1,2,4]triazolo[1,5-a]pyridine] had a concentration for half-maximal inhibition (IC50) of 0.88 nM.

The IC50 is the midpoint of a concentration-inhibition curve.
